Source: BigSolDB 2.1

O=C(O)CCCCCCCCCCC(=O)O
solubility (mole fraction)
Conditions | 288.15 K | 293.15 K | 298.15 K | 303.15 K | 308.15 K | 313.15 K | 318.15 K | 323.15 K
in 2-butanone | 0.0025 | 0.0036 | 0.005 | 0.007 | 0.0097 | 0.0133 | 0.0189 | 0.0255
in 3-pentanone | 0.0013 | 0.0018 | 0.0026 | 0.0036 | 0.005 | 0.0068 | 0.0094 | 0.0128
in acetic acid | 0.0032 | 0.0045 | 0.006 | 0.0079 | 0.0112 | 0.0155 | 0.02 | 0.0268
in acetone | 0.003 | 0.0041 | 0.0058 | 0.0077 | 0.0107 | 0.0145 | 0.0193 | 0.0257
in ethanol | 0.0083 | 0.0107 | 0.0145 | 0.0194 | 0.025 | 0.0317 | 0.0408 | 0.0516
in ethyl acetate | 0.0012 | 0.0017 | 0.0024 | 0.0034 | 0.0048 | 0.0066 | 0.009 | 0.0122
